# Test results: patent US20240041042A1, “1-(PYRIDYL)-5-AZINYLPYRAZOLE DERIVATIVES, AND THEIR USE FOR CONTROL OF UNDESIRED PLANT GROWTH” (Bayer Aktiengesellschaft, priority 2020, published 2024)
# Like-named read-outs stand apart in the source and are kept apart here.
# Columns and labels:
# Assay type in all cases: in vivo
# [1] = system: Abutilon theophrasti (ABUTH); assay: Pre-emergence herbicidal action against ABUTH; settings: 100% = plants have died
# Method in brief: (§1)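 Application rates ran to 320 g/ha or lower, with several dosages tested on the same weeds. The compound, as wettable powder or emulsion concentrate, is sprayed pre-emergence onto soil over sown seeds; greenhouse growth follows, and effect is rated visually after roughly 3 weeks.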
# [2] = system: Avena fatua (AVEFA); assay: Pre-emergence herbicidal action against AVEFA; settings: visual scoring after about 3 weeks vs untreated controls
# Method in brief: as §1
# [3] = system: Setaria viridis (SETVI); assay: Post-emergence herbicidal action against SETVI
# Method in brief: (§2)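 Greenhouse plants sprayed at the one-leaf stage, 2–3 weeks after sowing, with WP or EC formulations plus 0.5% additive at 600 l/ha water. Activity rated visually after about 3 weeks versus untreated controls (100% = dead, 0% = like control), at 320 g/ha or lower.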
# [4] = system: Oryza sativa (ORYSA); settings: crop plant compatibility
# Method in brief: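 Test crops were treated 2 to 3 weeks after sowing, once they reached one leaf, by spraying compound in water with 0.5% additive at 600 l/ha. Visual scoring compared them with untreated controls roughly 3 weeks on, and appendices a, b and c denote different doses.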
# [5] = system: Amaranthus retroflexus (AMARE); assay: Post-emergence herbicidal action against AMARE
# Method in brief: as §2
# [6] = system: Oryza sativa (ORYSA); settings: crop plant compatibility; for Pre-emergence action against ORYSA: 20 g/ha, effect vs untreated controls
# Method in brief: (§3)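 Crop injury rated visually in percent against untreated plants roughly 3 weeks after treatment (0% no effect, 100% plants dead). Compounds, as WP or EC with 0.5% additive in 600 l/ha water, were applied to the covering soil right after sowing; greenhouse growth. Suffixes a, b, c denote different dosages.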
# [7] = system: Zea mays (ZEAMX); settings: 20 g/ha; crop plant compatibility, effect vs untreated controls
# Method in brief: as §3
# [8] = system: Digitaria sanguinalis (DIGSA); assay: Pre-emergence herbicidal action against DIGSA
# Method in brief: as §1
# [9] = system: Digitaria sanguinalis (DIGSA); assay: Post-emergence herbicidal action against DIGSA; settings: visual rating about 3 weeks after treatment
# Method in brief: as §2
# [10] = 80 g/ha, scored visually after about 3 weeks vs untreated controls, 0% = like control plants
# [11] = Dosage column 320 g/ha (title prints 3200 g/ha), scored visually after about 3 weeks
# [12] = 80 g/ha, effect in comparison to untreated controls
# [13] = 80 g/ha, visual rating about 3 weeks after treatment vs untreated controls (100% = plants have died, 0% = like control plants)
# [14] = 320 g/ha, visual rating about 3 weeks after treatment
# [15] = 80 g/ha, visual scoring after about 3 weeks vs untreated controls
Structure (SMILES),"Pre-emergence action against ABUTH [1, 10] [%]","Pre-emergence action against ABUTH [1, 11] [%]",Pre-emergence action against AVEFA in % ([2]; 320 g/ha) [%],Post-emergence action against SETVI in % ([3]; dosage 320 g/ha) [%],"Post-emergence action against ORYSA in % [4, 12] [%]","Post-emergence action against ORYSA in % ([4]; 320 g/ha, effect in comparison to untreated controls) [%]","Post-emergence action against AMARE in % [5, 13] [%]","Post-emergence action against AMARE in % [5, 14] [%]",Post-emergence action against SETVI in % ([3]; dosage 80 g/ha) [%],Pre-emergence action against AVEFA in % ([2]; 80 g/ha) [%],Pre-emergence action against ORYSA [6] [%],Pre-emergence action against ZEAMX [7] [%],"Pre-emergence action against DIGSA in % [8, 15] [%]",Pre-emergence action against DIGSA in % ([8]; dosage 320 g/ha) [%],Post-emergence action against DIGSA in % ([9]; 80 g/ha) [%],Post-emergence action against DIGSA in % ([9]; 320 g/ha) [%],"Pre-emergence action against ORYSA in % ([6]; pre-emergence, 80 g/ha, in comparison to untreated controls) [%]","Post-emergence action against ORYSA in % ([4]; 20 g/ha, effect vs untreated controls) [%]"
COC(=O)CNC(=O)[C@@H](C)Oc1nn(-c2ccccn2)c(-c2cncc(F)c2)c1Br [Example I-187],80,90,90,80,10,20,,,,,,,,,,,,
COC(=O)[C@@H](C)Oc1nn(-c2ncccc2F)c(-c2ccc(F)nc2)c1I [Example I-341],90,90,90,80,0,,80,80,80,,,,,,,,,
C[C@@H](Oc1nn(-c2ncccc2F)c(-c2ccc(F)nc2)c1I)C(=O)O [Example I-343],80,100,90,90,10,,80,80,90,80,,,,,,,,
CCOC(=O)[C@@H](C)Oc1nn(-c2ccccn2)c(-c2cncc(F)c2)c1Cl [Example I-184],90,90,90,90,,,80,80,80,80,,,,,,,,
C[C@@H](Oc1nn(-c2ccccn2)c(-c2cncc(F)c2)c1Cl)C(=O)O [Example I-218],80,90,90,80,,,80,80,80,80,,,,,,,,
CCOC(=O)COc1nn(-c2ccccn2)c(-c2ccc(F)nc2)c1Br [Example I-02],,,100,80,,,80,80,80,90,0,0,,,,,,
COC(=O)[C@@H](C)Oc1nn(-c2ccccn2)c(-c2cncc(F)c2)c1Cl [Example I-189],80,90,90,90,,,,,90,90,,,,,,,,
COC(=O)C(C)COC(=O)[C@@H](C)Oc1nn(-c2ccccn2)c(-c2cncc(F)c2)c1Br (some centres unmarked) [Example I-188],80,90,90,80,20,,,80,80,80,,,,,,,,
COC(=O)C(C)COC(=O)C(C)Oc1nn(-c2ccccn2)c(-c2ccc(F)nc2)c1Cl (centres unmarked) [Example I-291],,,90,80,0,,80,80,80,80,,,100,100,,,,
O=C(O)COc1nn(-c2nc(F)ccc2F)c(-c2cncc(F)c2)c1C1CC1 [Example I-148],,,90,80,,,,,80,80,,,90,100,80,90,,
CCOC(=O)COc1nn(-c2nc(F)ccc2F)c(-c2cncc(F)c2)c1Br [Example I-193],,,90,90,10,,80,80,,,,,,,,,20,
C[C@@H](Oc1nn(-c2ncccc2F)c(-c2ccc(F)nc2)c1C1CC1)C(=O)O [Example I-342],,90,100,90,,,90,90,90,90,,,,,,,,
CCOC(=O)COc1nn(-c2ccccn2)c(-c2ccc(F)nc2)c1Cl [Example I-85],,,90,100,,,90,90,90,,,,,,,,,
COC(=O)CCOC(=O)[C@@H](C)Oc1nn(-c2ccccn2)c(-c2cncc(F)c2)c1Cl [Example I-196],80,90,90,80,,,80,80,80,80,,,,,,,,
CCOC(=O)[C@@H](C)Oc1nn(-c2ncccc2F)c(-c2ccc(F)nc2)c1C1CC1 [Example I-375],,100,100,90,,,80,80,90,90,,,,,,,,
COC(=O)COc1nn(-c2ncccc2F)c(-c2cncc(F)c2)c1Br [Example I-16],,,90,80,10,,,80,80,,20,10,100,100,,,,0
COC(=O)[C@@H](C)Oc1nn(-c2ncccc2F)c(-c2ccc(F)nc2)c1C1CC1 [Example I-307],,80,100,90,,,80,90,90,90,,,,,,,,
COC(=O)[C@@H](C)Oc1nn(-c2nc(F)ccc2F)c(-c2cncc(F)c2)c1Br [Example I-191],,90,100,80,,,80,80,80,,,,,,,,,
